Earlier results in US20090092696A1, “Herbal combination omega oil aphrodisiac” (priority 2007, published 2009).

Columns and labels:
corpus cavernosum = conditions: for duration of erection after injection: appropriate dose, intracavernosal; for erection when injected directly into the corpus cavernosum: hypodermic needle injection
impotent men = conditions: ingestion
impotentia erectionis = conditions: buccal administration of 100 I.U. three times a day for 14 days

Structure (SMILES) | erection when injected directly into the corpus cavernosum (corpus cavernosum) | further results
CC(COc1ccccc1)N(CCCl)Cc1ccccc1 (stereo not drawn) [phenoxybenzamine] | caused erection | duration of erection after injection (corpus cavernosum): unrelenting erection lasting for hours
CCN(CC)CCOC(=O)C(Cc1cccc2ccccc12)CC1CCCO1 (mixture of isomers) [naftidrofuryl] | caused erection | 
CC(=O)Oc1cc(C(C)C)c(OCCN(C)C)cc1C [thymoxamine] | caused erection | 
COC(=O)[C@@H]1[C@H]2C[C@H]3c4[nH]c5ccccc5c4CCN3C[C@@H]2CC[C@@H]1O [Yohimbine] |  | subjective improvement in erectile ability (impotent men; impotent men treated): 38%; treated patients reporting complete satisfaction (impotent men): 5%
COc1ccc(CCN(C)CCCC(C#N)(c2ccc(OC)c(OC)c2)C(C)C)cc1OC (stereo not drawn) [verapamil] | caused erection | 
CN(C)CCCN1c2ccccc2CCc2ccccc21 [imipramine] | caused erection | 
COc1ccc(Cc2nccc3cc(OC)c(OC)cc23)cc1OC [papaverine] | caused erection | duration of erection after injection (corpus cavernosum): unrelenting erection lasting for hours
CC[C@H](C)[C@@H]1NC(=O)[C@H](Cc2ccc(O)cc2)NC(=O)[C@@H](N)CSSC[C@@H](C(=O)N2CCC[C@H]2C(=O)N[C@@H](CC(C)C)C(=O)NCC(N)=O)NC(=O)[C@H](CC(N)=O)NC(=O)[C@H](CCC(N)=O)NC1=O [oxytocin] |  | improvement of impotentia erectionis (impotentia erectionis): 12 of the 16
Cc1ccc(N(CC2=NCCN2)c2cccc(O)c2)cc1 [phentolamine] | caused erection | 
